Results on one molecule are retold here after patent publication US8916610B2, “Acid addition salt of a nortriptyline-GABA conjugate and a process of preparing same” (Ramot at Tel-Aviv University Ltd., priority 2010, dated 2014).

Molecules are shown by their SMILES. Read-outs that look alike come from different tables or passages of the source.

How the values of data set [1] were obtained: Surface area data were collected using nitrogen absorption on a BET Micrometics Gemini V (11-point BET analysis) analyzer. The samples were outgassed at 25° C. under vacuum for at least 2 hours. SRM 1899 and SRM 1900 were used as the calibration standards.
On data set [2], the source says: Samples were submitted to Particle Technology Labs (PTL), Downers Grove, Ill., for bulk and tapped density analyses.
This is another data set of the same source.

On data set [3], the source says:
Particle size data was acquired using a Malvern Instruments MS2000 equipped with a Hydro2000μP dispersion unit. Data was collected and analyzed with Mastersizer 2000v.5.1 software, using volume based measurements. NIST traceable glass beads were used as the reference standard.
The final method conditions selected for determining the particle size of BL-1021 fumarate salts were as follows:
Dispersant: silicone oil;
Dispersant refractive index: 1.403;
The measurement of particle size of all lots was performed using the same method conditions (silicone oil as a dispersing medium, a pump speed of 1750 rpm).
This is another data set of the same source.

The mark [4] stands for this setting: batches after milling, listed as CC-2190.0-20.1.
Setting [5] is: batches after milling, listed as CC-2190.0-21.1.
Where [6] appears, read: batches after milling, listed as CC-2190.0-23.1.
[7] abbreviates: batches after milling, listed as CC-2562.0-01.1.
Setting [8] is: batches before and after milling.
Where [9] appears, read: silicone oil dispersing medium, pump speed 1750 rpm, volume based, text b315 speaks of μm.

Take `CN(CCC=C1c2ccccc2CCc2ccccc21)C(=O)CCCN.O=C(O)/C=C/C(=O)O` [BL-1021 fumarate salt, nortriptyline-4-aminobutyrate fumarate]: the “BET surface area, Results” value in data set [1] (batch before milling) is 6.58 m^2/g; in data set [1] (setting [4]) it was 8.43 m^2/g; in data set [1] (setting [5]), 10.84 m^2/g; in data set [1] (setting [6]), 11.84 m^2/g; in data set [1] (setting [7]), 7.45 m^2/g. The Bulk density amounted to 0.29 g/mL in data set [2] (batch before milling); 0.22 g/mL in data set [2] (setting [4]); 0.18 g/mL in data set [2] (setting [5]); 0.25 g/mL in data set [2] (setting [6]); 0.19 g/mL in data set [2] (setting [7]). Also, the Tapped density in data set [2] (batch before milling) was determined as 0.42 g/mL; in data set [2] (setting [4]), 0.35 g/mL; in data set [2] (setting [5]) it was 0.31 g/mL; in data set [2] (setting [6]) it was 0.39 g/mL; in data set [2] (setting [7]), 0.36 g/mL. Moreover, the “bulk density (range over batches)” value in data set [2] (setting [8]) is recorded as 0.18-0.29 gram/ml. The “tapped density (range over batches)” value in data set [2] (setting [8]) was 0.31-0.42 gram/ml. In addition, in data set [3] (setting [9]), the “particle size distribution d10” value is recorded as 7.0. The “particle size distribution d50” value in data set [3] (setting [9]) came out at 93.9. Also, the “particle size distribution d90” value in data set [3] (setting [9]) is reported as 220.8. Also, the “D90 (as stated in text, FIG. 6)” value in data set [3] (silicone oil, 1750 rpm) is reported as 200±25%. In addition, the “particle size up to (upper end of bimodal distribution, FIG. 6)” value in data set [3] (silicone oil, 1750 rpm, fine tail below 1 μm) is not above 400 μm.
